Measurements: patent EP0326196A2, “Aqueous pharmaceutical preparation” (AKZO N.V., priority 1988, dated 1989)
Values after ≈ are worked out from the molar mass of the structure shown. Where two headings read alike, the source gives them in different places.

Key:
[1] = Solubility study of the Steroid in water / aqueous cyclodextrin solutions (phase-solubility, UV/VIS); assay type: physicochemical
Experimental: The solubility studies were performed according to the method described below which is well known in the litrature. Excess amounts of the Steroid were added to aqueous solutions of 2,6-dimethyl-β-cyclodextrin. These suspensions were shaken at room temperature during 5 days followed by an equilibration period of 3 days at room temperature. Then an aliquot was centrifuged and the supernatant was filtered through a 0,45 µm membrane filter (Millipore: HV4, Millex). The samples were analysed with the Perkin Elmer Lambda 5 UV/VIS spectrophotometer. The absorbance was read and compared with a blanc and standard calibration curve. […] After calculation of the amount of Steroid dissolved, a phase-solubility diagram was constructed by plotting the dissolved amounts of Steroid as a function of the concentration of 2,6-dimethyl-β-cyclodextrin (see Graph).
For comparative purposes the unexpected increase of solubility of the Steroid in water using 2,6-dimethyl-β-cyclodextrin, is compared with other more common cyclodextrins.

[2] = Intra ocular pressure on application to the eyes; assay type: in vivo; conditions: applied to the eyes; contrary to other corticosteroids
[3] = Systemic effect after local administration; assay type: in vivo; conditions: administered locally

increase of the solubility (factor) [1]: 10.000 | solubility ([1]; water with 2,6-dimethyl-β-cyclodextrin, in water with 2,6-dimethyl-β-cyclodextrin, room temperature, read-out: Solubility): 9000 µg/mL (≈ 24300 µM) | solubility ([1]; water with α-cyclodextrin, in water with α-cyclodextrin, room temperature, read-out: Solubility): 40 µg/mL (≈ 108 µM) | solubility ([1]; water with β-cyclodextrin, in water with β-cylodextrin, room temperature, read-out: Solubility): 50 µg/mL (≈ 135 µM) | solubility ([1]; water with τ-cyclodextrin, in water with τ-cyclodextrin, room temperature, read-out: Solubility): 70 µg/mL (≈ 189 µM) | solubility ([1]; water, 2,6-dimethyl-beta-cyclodextrin, 2,6-dimethyl-β-cyclodextrin as solubilizing agent, about 0,28 millimol per ml, read-out: maximal solubility of the Steroid in water): 9000 to 10000 µg/mL (≈ 24300 to 27000 µM) | solubility ([1]; water, 2,6-dimethyl-beta-cyclodextrin, inclusion complex with 2,6-dimethyl-β-cyclodextrin, read-out: solubility of the Steroid in water): ~10000 µg/mL (≈ 27000 µM) | solubility ([1]; water, no cyclodextrin, read-out: Solubility without cyclodextrin): 0.7 µg/mL (≈ 1.89 µM) | solubility ([1]; water, no cyclodextrin, read-out: original solubility in water): 0.5 µg/mL (≈ 1.35 µM) | increase of the intra ocular pressure (I.O.P.) [2]: did not increase I.O.P.
Structure (SMILES): CCC(=O)[C@@]1(C)[C@H](C)C[C@H]2[C@@H]3CCC4=CC(=O)C=C[C@]4(C)[C@H]3[C@@H](O)C[C@@]21C [Org 6216, 11β-hydroxy-16α,17α,21-trimethyl-▲¹ʼ⁴-pregnadiene-3,20-dione]
systemic effect [3]: did not expose any significant systemic effect
